From ChEMBL document CHEMBL5465560, “Selectivity Literature for EUbOPEN Chemogenomic Library” (2024) come the findings set out here.

The target of assay [1] is Tyrosine-protein kinase Fgr (Homo sapiens) (UniProt P09769). Nature of the assay: Selectivity interaction (Kinase panel (Z-LYTE Assay)) EUB0001632a FGR. Conditions: at 10 µM.
The test system of assay [2] is Angiopoietin-1 receptor (Homo sapiens), Q02763 [Y1108F]. Nature of the assay: (§1) Selectivity interaction (LanthaScreen Eu Kinase Binding Assay) EUB0001632a TEK. Conditions: at 10 µM.
In assay [3] the test system is Angiopoietin-1 receptor (Homo sapiens), Q02763 [R849W]. Described as §1. To be noted: at 10 µM.
Assay [4] addresses Serine/threonine-protein kinase OSR1 (Homo sapiens) (UniProt O95747). Nature of the assay: Selectivity interaction (ActivX KiNativ screen (ex vivo kinase selectivity in human PBMCs)) EUB0001619a OXSR1. The class given is cell-based. To be noted: PBMC, at 1 µM.
Assay [5] concerns the target Serine/threonine-protein kinase PRP4 homolog (Homo sapiens) (UniProt Q13523). Description: Selectivity interaction (KinomeScan (DiscoverX)) EUB0001619a PRPF4. To be noted: at 1 µM.
The target of assay [6] is Serine/threonine-protein kinase pim-2 (Homo sapiens, UniProt Q9P1W9). Nature of the assay: Selectivity interaction (SelectScreen profiling (Invitrogen)) EUB0000607a PIM2. Conditions: at 2 µM.
The target in assay [7] is T1, Serine/threonine-protein kinase D2 (Homo sapiens) (UniProt Q9BZL6).
T1 sequence (whole entry): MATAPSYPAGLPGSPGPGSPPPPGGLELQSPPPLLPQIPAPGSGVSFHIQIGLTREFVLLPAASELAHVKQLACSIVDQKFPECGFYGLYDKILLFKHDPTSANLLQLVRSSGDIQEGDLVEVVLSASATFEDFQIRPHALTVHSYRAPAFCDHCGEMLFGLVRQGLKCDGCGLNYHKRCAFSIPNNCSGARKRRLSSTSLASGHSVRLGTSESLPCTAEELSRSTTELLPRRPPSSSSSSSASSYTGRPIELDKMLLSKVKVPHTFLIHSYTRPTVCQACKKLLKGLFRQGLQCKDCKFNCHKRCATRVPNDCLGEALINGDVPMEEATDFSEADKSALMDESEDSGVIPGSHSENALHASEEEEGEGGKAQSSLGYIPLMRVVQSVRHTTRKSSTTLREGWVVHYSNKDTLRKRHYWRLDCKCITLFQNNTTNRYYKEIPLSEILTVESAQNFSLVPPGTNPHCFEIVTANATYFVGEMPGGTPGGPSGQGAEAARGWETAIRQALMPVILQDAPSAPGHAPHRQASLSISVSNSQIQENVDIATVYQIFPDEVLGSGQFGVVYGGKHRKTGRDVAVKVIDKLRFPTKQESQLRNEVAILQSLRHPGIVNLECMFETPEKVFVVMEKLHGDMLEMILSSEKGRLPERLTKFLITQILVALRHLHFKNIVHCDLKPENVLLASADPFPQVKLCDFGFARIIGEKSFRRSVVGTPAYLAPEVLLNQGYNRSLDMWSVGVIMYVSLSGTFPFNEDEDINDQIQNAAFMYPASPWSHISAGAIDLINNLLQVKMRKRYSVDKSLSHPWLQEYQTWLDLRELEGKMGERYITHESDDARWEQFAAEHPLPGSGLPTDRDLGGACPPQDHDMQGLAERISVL
To be noted: at 10 µM.

In assay [8] the target is T2, Cyclin-dependent kinase 11A (Homo sapiens) (UniProt Q9UQ88).
T2 sequence (whole entry): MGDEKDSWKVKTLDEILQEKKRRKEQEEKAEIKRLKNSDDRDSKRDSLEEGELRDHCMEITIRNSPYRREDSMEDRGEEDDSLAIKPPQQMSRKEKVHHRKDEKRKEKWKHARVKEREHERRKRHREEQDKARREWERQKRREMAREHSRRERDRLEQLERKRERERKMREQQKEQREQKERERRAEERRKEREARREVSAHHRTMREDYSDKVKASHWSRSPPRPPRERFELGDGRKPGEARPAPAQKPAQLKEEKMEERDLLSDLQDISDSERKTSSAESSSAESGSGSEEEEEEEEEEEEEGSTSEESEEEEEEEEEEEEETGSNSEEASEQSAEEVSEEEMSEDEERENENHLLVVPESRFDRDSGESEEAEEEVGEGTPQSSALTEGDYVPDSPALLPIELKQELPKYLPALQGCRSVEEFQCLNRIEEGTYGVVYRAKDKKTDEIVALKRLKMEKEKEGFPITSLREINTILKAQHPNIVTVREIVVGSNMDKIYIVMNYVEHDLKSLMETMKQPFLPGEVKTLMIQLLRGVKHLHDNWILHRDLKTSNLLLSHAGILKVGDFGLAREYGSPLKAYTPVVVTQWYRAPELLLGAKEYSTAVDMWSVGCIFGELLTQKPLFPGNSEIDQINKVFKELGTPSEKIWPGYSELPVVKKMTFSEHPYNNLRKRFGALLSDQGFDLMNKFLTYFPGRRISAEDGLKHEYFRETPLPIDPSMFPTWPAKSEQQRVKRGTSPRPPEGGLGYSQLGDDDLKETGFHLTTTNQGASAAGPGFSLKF
Description: Selectivity interaction (KinomeScan (DiscoverX)) EUB0000045b CDK11A. Conditions: at 1 µM.

Assay [9] addresses T3, Myotonin-protein kinase (Homo sapiens) (UniProt Q09013).
T3 sequence (whole entry): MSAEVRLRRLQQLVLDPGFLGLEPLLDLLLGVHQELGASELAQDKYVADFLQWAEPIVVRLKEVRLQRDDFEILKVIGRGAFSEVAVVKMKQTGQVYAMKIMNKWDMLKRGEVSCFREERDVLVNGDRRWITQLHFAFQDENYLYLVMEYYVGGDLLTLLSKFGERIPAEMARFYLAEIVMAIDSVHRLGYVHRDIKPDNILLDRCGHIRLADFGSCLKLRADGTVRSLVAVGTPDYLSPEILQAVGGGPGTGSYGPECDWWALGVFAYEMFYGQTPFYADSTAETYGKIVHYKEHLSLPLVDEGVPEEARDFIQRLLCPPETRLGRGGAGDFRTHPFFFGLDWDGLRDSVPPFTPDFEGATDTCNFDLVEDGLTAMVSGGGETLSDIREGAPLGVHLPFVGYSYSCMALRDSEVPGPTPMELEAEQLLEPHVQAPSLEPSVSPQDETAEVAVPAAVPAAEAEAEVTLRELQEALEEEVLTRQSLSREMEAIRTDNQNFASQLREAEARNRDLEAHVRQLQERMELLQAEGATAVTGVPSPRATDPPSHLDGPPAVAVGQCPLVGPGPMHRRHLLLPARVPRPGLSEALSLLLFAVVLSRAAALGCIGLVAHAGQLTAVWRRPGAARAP
Nature of the assay: Selectivity interaction (ProQinase) EUB0000171b DMPK.

Assay [10] deals with Activin receptor type-2A (Homo sapiens) (UniProt P27037). Nature of the assay: Selectivity interaction (KinomeScan (DiscoverX)) EUB0001049a ACVR2A. Conditions: at 1 µM.
Assay [11] has as its target Mitogen-activated protein kinase kinase kinase 4 (Homo sapiens) (UniProt Q9Y6R4). Nature of the assay: Selectivity interaction (KinomeScan (DiscoverX)) EUB0001079a MAP3K4. Conditions: at 1 µM.

Activin receptor type-2A (Homo sapiens), sequence (P27037 whole entry): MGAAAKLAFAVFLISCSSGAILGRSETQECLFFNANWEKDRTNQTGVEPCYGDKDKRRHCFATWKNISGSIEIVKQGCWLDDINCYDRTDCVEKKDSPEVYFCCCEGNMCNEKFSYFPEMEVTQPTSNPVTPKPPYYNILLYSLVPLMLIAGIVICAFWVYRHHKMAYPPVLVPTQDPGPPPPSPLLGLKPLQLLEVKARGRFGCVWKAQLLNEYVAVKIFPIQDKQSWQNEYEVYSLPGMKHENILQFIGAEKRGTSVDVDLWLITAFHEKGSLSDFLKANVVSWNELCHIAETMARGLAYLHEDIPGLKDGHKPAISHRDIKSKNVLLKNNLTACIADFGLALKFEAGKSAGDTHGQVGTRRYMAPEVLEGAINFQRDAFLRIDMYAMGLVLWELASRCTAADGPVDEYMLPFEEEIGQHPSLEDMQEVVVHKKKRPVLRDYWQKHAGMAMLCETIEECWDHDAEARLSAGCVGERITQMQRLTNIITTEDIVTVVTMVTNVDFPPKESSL
Mitogen-activated protein kinase kinase kinase 4 (Homo sapiens), sequence (Q9Y6R4 whole entry): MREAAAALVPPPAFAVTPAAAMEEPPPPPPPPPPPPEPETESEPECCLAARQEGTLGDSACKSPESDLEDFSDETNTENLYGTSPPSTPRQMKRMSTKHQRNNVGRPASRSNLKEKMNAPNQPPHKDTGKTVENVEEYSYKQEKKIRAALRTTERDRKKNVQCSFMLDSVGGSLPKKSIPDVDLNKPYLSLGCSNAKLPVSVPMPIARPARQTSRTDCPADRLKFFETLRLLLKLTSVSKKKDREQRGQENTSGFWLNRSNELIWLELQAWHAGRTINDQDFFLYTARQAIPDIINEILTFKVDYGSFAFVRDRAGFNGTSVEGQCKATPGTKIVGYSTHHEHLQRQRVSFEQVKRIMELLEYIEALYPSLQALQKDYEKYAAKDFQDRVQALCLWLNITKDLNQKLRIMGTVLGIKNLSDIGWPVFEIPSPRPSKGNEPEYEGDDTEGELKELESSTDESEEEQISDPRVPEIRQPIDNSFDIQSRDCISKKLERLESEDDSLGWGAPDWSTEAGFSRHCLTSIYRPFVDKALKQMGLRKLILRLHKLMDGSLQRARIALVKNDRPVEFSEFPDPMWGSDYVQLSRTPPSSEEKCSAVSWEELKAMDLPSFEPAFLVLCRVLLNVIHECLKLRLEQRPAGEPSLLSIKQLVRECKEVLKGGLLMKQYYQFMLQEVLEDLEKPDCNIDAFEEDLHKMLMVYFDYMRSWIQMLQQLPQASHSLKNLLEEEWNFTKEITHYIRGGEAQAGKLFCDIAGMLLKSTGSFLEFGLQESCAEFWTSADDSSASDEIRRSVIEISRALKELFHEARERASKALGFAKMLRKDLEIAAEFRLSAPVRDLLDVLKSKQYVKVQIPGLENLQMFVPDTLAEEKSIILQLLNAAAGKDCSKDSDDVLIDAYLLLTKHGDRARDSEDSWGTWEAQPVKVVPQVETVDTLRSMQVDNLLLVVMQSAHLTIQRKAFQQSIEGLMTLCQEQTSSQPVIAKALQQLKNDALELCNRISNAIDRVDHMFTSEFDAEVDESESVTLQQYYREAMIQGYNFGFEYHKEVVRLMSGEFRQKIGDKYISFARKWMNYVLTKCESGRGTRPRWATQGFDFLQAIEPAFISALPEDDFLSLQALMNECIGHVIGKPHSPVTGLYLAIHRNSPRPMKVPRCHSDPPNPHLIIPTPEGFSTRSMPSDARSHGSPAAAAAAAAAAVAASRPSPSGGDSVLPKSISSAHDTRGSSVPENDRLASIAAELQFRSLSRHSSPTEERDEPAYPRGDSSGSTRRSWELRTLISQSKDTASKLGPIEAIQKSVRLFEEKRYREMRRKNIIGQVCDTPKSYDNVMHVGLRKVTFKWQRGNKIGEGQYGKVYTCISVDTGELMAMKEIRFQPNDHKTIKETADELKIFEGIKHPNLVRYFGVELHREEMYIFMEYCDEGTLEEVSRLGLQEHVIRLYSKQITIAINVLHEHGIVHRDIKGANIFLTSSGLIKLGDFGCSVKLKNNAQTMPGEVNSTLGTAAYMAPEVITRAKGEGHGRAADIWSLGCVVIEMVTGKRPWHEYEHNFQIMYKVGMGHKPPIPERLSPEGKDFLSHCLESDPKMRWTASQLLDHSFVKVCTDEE
Angiopoietin-1 receptor (Homo sapiens), Q02763 [Y1108F], sequence (Q02763 whole entry Y1108F): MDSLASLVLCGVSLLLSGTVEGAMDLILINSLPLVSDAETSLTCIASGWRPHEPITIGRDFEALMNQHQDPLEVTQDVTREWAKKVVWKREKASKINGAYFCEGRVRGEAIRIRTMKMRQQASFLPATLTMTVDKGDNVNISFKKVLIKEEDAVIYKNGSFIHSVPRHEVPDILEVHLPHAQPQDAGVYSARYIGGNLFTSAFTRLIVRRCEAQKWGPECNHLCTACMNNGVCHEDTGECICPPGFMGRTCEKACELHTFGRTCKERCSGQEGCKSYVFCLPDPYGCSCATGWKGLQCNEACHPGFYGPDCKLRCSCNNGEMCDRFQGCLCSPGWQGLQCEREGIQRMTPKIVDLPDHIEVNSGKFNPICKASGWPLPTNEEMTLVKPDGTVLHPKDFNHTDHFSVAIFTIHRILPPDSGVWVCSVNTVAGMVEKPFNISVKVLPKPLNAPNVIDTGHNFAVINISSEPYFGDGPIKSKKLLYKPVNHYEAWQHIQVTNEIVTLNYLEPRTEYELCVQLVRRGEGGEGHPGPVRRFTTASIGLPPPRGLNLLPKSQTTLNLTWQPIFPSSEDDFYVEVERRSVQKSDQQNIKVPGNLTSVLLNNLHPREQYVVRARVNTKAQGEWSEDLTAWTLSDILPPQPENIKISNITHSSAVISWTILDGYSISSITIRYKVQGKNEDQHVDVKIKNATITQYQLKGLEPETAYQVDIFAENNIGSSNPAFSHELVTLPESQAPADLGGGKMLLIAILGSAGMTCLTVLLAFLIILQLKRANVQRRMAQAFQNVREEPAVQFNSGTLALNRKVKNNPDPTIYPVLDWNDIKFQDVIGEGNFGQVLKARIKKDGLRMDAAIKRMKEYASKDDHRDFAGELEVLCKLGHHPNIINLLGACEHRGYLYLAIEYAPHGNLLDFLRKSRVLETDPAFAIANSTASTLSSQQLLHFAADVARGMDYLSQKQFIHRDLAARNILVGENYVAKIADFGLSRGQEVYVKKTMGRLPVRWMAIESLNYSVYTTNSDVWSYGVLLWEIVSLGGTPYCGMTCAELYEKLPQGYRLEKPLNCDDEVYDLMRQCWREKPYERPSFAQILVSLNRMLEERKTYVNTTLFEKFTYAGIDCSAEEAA
Serine/threonine-protein kinase pim-2, sequence (Q9P1W9 whole entry, looked up): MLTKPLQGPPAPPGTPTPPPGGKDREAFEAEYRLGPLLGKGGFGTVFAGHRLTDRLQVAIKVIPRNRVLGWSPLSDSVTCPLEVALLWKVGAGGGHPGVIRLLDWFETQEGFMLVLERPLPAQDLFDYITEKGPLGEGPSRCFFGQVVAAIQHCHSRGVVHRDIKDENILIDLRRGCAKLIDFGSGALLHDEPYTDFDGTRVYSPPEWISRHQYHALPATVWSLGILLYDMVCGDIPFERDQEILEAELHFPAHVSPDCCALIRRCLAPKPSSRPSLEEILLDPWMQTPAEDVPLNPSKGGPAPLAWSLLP
Angiopoietin-1 receptor (Homo sapiens), Q02763 [R849W], sequence (Q02763 whole entry R849W): as the sequence (Q02763 whole entry Y1108F) above, with R849W, F1108Y counted along it
Tyrosine-protein kinase Fgr (Homo sapiens), sequence (P09769 2-529 limits assumed): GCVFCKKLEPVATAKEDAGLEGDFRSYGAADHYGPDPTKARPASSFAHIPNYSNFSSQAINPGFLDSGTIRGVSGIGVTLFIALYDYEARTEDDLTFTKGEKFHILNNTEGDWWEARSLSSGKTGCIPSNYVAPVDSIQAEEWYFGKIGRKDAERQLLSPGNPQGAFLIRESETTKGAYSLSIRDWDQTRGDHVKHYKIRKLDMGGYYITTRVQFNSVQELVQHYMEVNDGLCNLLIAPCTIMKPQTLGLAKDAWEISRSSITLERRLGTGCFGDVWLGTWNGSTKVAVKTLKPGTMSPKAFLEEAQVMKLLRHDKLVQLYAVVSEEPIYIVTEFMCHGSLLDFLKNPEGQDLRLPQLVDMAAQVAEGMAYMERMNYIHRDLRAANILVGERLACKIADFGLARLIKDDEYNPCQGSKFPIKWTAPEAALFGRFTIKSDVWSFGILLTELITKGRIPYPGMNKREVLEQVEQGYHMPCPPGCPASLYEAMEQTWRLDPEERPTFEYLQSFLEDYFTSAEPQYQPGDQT
Serine/threonine-protein kinase OSR1 (Homo sapiens), sequence (O95747 2-527 limits assumed): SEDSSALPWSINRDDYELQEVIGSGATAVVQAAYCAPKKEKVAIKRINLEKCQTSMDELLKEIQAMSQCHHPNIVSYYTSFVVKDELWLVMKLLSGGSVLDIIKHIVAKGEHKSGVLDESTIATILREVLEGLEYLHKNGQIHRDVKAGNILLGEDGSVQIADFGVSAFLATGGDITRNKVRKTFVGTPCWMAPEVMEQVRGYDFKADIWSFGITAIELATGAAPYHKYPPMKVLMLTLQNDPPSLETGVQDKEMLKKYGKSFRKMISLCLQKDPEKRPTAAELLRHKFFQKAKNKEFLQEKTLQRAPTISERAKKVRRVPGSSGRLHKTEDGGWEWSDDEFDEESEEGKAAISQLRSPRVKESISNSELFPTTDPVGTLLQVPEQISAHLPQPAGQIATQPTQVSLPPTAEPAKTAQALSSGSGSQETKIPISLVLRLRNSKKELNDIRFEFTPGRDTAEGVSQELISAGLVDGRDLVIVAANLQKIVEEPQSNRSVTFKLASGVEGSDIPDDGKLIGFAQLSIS

`Cn1cc(-n2cnc3c(NCc4nc5cc(Cl)c(Cl)cc5[nH]4)nc(N4CCOCC4)nc32)cn1` gave a % of control in [1] of 1.86%. Moreover, the figures for the % of inhibition in [2] and in assay [3] were -24.4% and -63.9%, respectively.

Take `N#Cc1cccc(-c2c[nH]c3ncnc(N4CCOCC4)c23)c1`: the % of inhibition in assay [4] is -55%. For the same compound, the % of control in assay [5] came to 92%.

For the compound `CNC(=O)Nc1ccc(-c2nc(N3CC4CCC(C3)O4)c3cnn(C4CCC5(CC4)OCCO5)c3n2)cc1`, the % of inhibition in assay [6] came out at 3%.

As to `Cc1cc([C@@H](C)Nc2ccccc2C(=O)O)c2nc(N3CCOCC3)cc(=O)n2c1` [AZD-6482], the % of control in assay [7] is 100%.

`C=CC(=O)Nc1cc(-n2c(=O)ccc3cnc4ccc(-c5ccc(NS(C)(=O)=O)cc5)cc4c32)ccc1C` returned a % of control in assay [8] of 100%.

`C=CC(=O)Nc1cccc(C(=O)Nc2ccc(Nc3cc(-c4[nH]c(SC)nc4C)ccn3)cc2)c1`: the % of control in assay [9] (at 1 µM) turned out to be 97%; in assay [9] (at 5 µM) it was 92%.

In [10], `COc1cc(Nc2nc(C)cc(-c3cnn4nc(OC)ccc34)n2)cc(C(F)(F)F)c1` returned a % of control of 98%.

The compound `Nc1cnc(N2CCc3cc(S(=O)(=O)Nc4c(F)cc(Cl)cc4F)cc(N4CCCC4=O)c32)nc1` [TP-020n] displayed a % of control in assay [11] of 85%.
